The subject of assay [1] is Phosphorylated Ribosomal Protein S6 (RPS6) in THP-1 cells. Description: THP-1 RPS6 ELISA assay. The assay is classed as cell-based, human. To be noted: Homo sapiens, THP-1, THP-1 cells, 10 nM MCP-1; read-out: PI3Kγ_THP1_RPS6_ELISA IC50. Background: ELISA stands for enzyme-linked immunosorbent assay.
Assay [2] has as its target PI3Kγ (p110γ) Recombinant Human Protein (Homo sapiens (Human), UniProt P48736). Description: PI3K-γ scintillation proximity assay. The assay is classed as biochemical. To be noted: 2 μM ATP, 20 μM PIP2. (In a scintillation proximity assay essentially only radioactivity close to the scintillant gives light.)
Assay [3] deals with PI3Kδ (p110δ/p85α) Recombinant Human Protein (Homo sapiens (Human), UniProt O00329). Description: PI3Kδ scintillation proximity assay. The format is biochemical. To be noted: 2 μM ATP, 20 μM PIP2.

pIC50: −log10 of the molar value. Structures can show the parent of a compound that is named as a salt.

Chain of PI3Kγ (p110γ) Recombinant Human Protein (P48736 whole entry): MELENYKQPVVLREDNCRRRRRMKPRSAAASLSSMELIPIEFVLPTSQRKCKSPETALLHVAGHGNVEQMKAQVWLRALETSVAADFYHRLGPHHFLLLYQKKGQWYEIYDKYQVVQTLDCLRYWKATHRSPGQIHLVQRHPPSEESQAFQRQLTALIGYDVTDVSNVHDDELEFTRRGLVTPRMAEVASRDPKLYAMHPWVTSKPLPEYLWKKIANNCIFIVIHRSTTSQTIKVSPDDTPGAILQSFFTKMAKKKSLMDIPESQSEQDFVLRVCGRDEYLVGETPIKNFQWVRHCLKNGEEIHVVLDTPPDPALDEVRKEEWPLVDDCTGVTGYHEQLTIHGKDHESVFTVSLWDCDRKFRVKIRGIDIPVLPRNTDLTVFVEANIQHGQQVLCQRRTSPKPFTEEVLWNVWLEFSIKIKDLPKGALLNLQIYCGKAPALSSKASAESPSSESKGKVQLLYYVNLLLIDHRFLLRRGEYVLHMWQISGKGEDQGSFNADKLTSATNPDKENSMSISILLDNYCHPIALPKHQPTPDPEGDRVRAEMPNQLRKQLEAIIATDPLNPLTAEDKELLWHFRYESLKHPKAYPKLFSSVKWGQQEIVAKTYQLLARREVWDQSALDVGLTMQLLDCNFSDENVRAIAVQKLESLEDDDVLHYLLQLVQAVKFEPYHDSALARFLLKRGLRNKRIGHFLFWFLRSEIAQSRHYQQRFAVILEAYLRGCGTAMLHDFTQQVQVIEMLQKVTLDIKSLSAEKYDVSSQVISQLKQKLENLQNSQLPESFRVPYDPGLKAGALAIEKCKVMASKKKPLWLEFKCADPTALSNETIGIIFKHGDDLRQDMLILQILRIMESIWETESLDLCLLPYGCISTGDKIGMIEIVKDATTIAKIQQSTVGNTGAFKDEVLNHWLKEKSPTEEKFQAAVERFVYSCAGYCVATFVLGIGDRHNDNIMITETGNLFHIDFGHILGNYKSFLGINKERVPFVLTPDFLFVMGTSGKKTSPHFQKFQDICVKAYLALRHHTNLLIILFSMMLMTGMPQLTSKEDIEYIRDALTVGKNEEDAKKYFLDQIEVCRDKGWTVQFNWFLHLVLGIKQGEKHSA
Chain of PI3Kδ (p110δ/p85α) Recombinant Human Protein (O00329 whole entry): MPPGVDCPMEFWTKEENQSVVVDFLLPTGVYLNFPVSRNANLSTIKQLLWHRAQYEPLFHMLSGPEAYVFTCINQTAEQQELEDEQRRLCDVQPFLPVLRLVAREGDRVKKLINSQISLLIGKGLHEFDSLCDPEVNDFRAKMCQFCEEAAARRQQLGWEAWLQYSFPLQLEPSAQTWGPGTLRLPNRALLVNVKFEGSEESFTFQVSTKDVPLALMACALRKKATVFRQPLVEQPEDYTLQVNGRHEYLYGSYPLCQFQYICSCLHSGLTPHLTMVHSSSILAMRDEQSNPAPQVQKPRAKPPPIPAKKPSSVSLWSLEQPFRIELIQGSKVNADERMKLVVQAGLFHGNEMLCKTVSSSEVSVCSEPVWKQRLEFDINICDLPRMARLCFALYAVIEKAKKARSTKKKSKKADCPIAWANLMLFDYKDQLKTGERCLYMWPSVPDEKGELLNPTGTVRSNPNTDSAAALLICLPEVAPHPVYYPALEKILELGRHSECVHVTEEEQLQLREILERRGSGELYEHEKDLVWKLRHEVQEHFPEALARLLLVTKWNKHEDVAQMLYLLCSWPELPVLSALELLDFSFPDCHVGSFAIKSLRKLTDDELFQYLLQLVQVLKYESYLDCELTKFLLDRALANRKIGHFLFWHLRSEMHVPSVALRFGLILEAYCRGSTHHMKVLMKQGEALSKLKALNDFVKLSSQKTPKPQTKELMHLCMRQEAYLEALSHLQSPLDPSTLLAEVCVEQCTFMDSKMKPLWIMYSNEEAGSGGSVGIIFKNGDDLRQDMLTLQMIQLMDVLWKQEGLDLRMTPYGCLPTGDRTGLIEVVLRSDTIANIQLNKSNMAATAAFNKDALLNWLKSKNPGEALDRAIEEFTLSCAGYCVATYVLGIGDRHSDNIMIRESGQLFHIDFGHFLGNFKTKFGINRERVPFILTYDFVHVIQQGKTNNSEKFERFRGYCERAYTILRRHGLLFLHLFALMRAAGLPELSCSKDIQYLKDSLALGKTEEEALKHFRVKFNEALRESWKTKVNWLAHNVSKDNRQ
Chain of PI3Kδ (p110δ/p85α) Recombinant Human Protein (P27986 whole entry partner): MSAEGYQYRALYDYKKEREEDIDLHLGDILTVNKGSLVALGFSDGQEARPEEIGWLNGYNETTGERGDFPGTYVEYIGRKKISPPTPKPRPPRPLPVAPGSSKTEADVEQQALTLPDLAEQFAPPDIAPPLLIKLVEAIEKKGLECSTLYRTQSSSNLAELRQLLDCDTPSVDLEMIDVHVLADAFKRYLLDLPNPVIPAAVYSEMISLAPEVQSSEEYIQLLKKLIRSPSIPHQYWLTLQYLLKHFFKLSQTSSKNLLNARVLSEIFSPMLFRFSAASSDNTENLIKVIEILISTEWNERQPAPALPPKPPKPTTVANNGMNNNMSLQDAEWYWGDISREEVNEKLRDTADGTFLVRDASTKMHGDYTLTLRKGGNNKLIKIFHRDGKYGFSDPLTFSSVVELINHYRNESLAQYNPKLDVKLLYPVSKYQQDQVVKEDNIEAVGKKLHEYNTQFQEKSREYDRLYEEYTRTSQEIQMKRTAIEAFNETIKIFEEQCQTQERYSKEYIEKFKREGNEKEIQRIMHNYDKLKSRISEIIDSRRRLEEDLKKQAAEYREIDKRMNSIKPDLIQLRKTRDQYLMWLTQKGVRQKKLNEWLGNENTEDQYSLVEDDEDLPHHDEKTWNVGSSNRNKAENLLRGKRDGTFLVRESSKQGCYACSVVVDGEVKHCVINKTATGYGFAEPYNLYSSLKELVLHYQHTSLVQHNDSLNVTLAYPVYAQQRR

For `CC(NC(=O)c1c(N)nn2cccnc12)c1cc(Cl)c2ccnn2c1-c1cccnc1` (stereo not drawn) [Example 59, 2-Amino-N-(1-(4-chloro-7-(pyridin-3-yl)pyrazolo[1,5-a]pyridin-6-yl)ethyl)pyrazolo[1,5-a]pyrimidine-3-carboxamide trifluoroacetate], the pIC50 (usually the IC50 on a negative log10 scale, so that one unit is a factor of ten) in assay [1] was above 6.30; in assay [2], above 7.00; in assay [3] it was above 7.00.
Consider `CC(NC(=O)c1c(N)nn2cccnc12)c1cc(Cl)c2c(C#N)cnn2c1N1CCS(=O)(=O)CC1` (stereo not drawn) [Example 60, 2-Amino-N-(1-(4-chloro-3-cyano-7-(1,1-dioxidothiomorpholino)pyrazolo[1,5-a]pyridin-6-yl)ethyl)pyrazolo[1,5-a]pyrimidine-3-carboxamide trifluoroacetate], for which the pIC50 in assay [1] was above 6.30; in assay [2], above 7.00; in assay [3], above 6.30.
In the case of `CC(NC(=O)c1c(N)nn2cccnc12)c1cc(Cl)c2c(C#N)cnn2c1N1CCC[C@H](O)C1` (stereo partly drawn) [Example 61, 2-Amino-N-(1-(4-chloro-3-cyano-7-((S)-3-hydroxypiperidin-1-yl)pyrazolo[1,5-a]pyridin-6-yl)ethyl)pyrazolo[1,5-a]pyrimidine-3-carboxamide trifluoroacetate], the pIC50 in assay [1] was above 6.00; in assay [2], above 7.00; in assay [3], above 5.70.
Take `CC(NC(=O)c1c(N)nn2cccnc12)c1cc(Cl)c2cncn2c1C1CCCC1` (stereo not drawn) [Example 62, 2-amino-N-(1-(8-chloro-5-cyclopentylimidazo[1,5-a]pyridin-6-yl)ethyl)pyrazolo[1,5-a]pyrimidine-3-carboxamide trifluoroacetate]: the values for the pIC50 in assay [1], in assay [2] and in assay [3] were above 6.30, above 7.00 and above 6.30, respectively.
`CC(NC(=O)c1c(N)nn2cccnc12)c1cc(Cl)c2cnnn2c1-c1ccccc1` (stereo not drawn) [Example 63, 2-Amino-N-(1-(4-chloro-7-phenyl-[1,2,3]triazolo[1,5-a]pyridin-6-yl)ethyl)pyrazolo[1,5-a]pyrimidine-3-carboxamide trifluoroacetate]: the pIC50 in assay [1], in assay [2] and in assay [3] was above 6.30 throughout.
In the case of `CC(NC(=O)c1c(N)nn2cccnc12)c1cc(Cl)c2cncn2c1N1CCC(F)(F)CC1` (stereo not drawn) [Example 65, 2-Amino-N-{1-[8-chloro-5-(4,4-difluoropiperidin-1-yl)imidazo[1,5-a]pyridin-6-yl]ethyl}pyrazolo[1,5-a]pyrimidine-3-carboxamide bistrifluoroacetate], the pIC50 in assay [1] was above 6.30; in assay [2], above 7.00; in assay [3], above 7.00.
For `CC(NC(=O)c1c(N)nn2cccnc12)c1cc(Cl)c2cncn2c1N1CCC(F)CC1` (stereo not drawn) [Example 66, 2-Amino-N-{1-[8-chloro-5-(4-fluoropiperidin-1-yl)imidazo[1,5-a]pyridin-6-yl]ethyl}pyrazolo[1,5-a]pyrimidine-3-carboxamide bistrifluoroacetate], the results for the pIC50 in assay [1], in assay [2] and in assay [3] were above 6.30, above 7.00 and above 7.00, respectively.
Consider `CC(NC(=O)c1c(N)nn2cccnc12)c1cc(Cl)c2cncn2c1N1CCCC(F)(F)C1` (stereo not drawn) [Example 67, 2-Amino-N-{1-[8-chloro-5-(3,3-difluoropiperidin-1-yl)imidazo[1,5-a]pyridin-6-yl]ethyl}pyrazolo[1,5-a]pyrimidine-3-carboxamide bis trifluroacetate], for which the pIC50 was above 6.30 in assay [1], above 7.00 in assay [2] and above 7.00 in assay [3].
With `CC(NC(=O)c1c(N)nn2cccnc12)c1cc(Cl)c2cncn2c1N1CCC(F)(F)C1` (stereo not drawn) [Example 68, 2-Amino-N-{1-[8-chloro-5-(3,3-difluoropyrrolidin-1-yl)imidazo[1,5-a]pyridin-6-yl]ethyl}pyrazolo[1,5-a]pyrimidine-3-carboxamide bistrifluoroacetate], the pIC50 was above 6.30 in assay [1], above 7.00 in assay [2] and above 7.00 in assay [3].
Turning to `CC1CCN(c2c(C(C)NC(=O)c3c(N)nn4cccnc34)cc(Cl)c3cncn23)CC1` (stereo not drawn) [Example 69, 2-Amino-N-{1-[8-chloro-5-(4-methylpiperidin-1-yl)imidazo[1,5-a]pyridin-6-yl]ethyl}pyrazolo[1,5-a]pyrimidine-3-carboxamide bistrifluoroacetate], the pIC50 in assay [1] is above 6.00; in assay [2], above 7.00; in assay [3] it was above 6.30.
`CC(NC(=O)c1c(N)nn2cccnc12)c1cc(Cl)c2cncn2c1N1CCCC1(C)C` (stereo not drawn) [Example 70, 2-Amino-N-{1-[8-chloro-5-(2,2-dimethylpyrrolidin-1-yl)imidazo[1,5-a]pyridin-6-yl]ethyl}pyrazolo[1,5-a]pyrimidine-3-carboxamide bistrifluoroacetate]: the pIC50 is above 6.30 in assay [1], above 7.00 in assay [2] and above 7.00 in assay [3].
Consider `CC(NC(=O)c1c(N)nn2cccnc12)c1cc(Cl)c2cncn2c1N1CCC[C@H]1C` (stereo partly drawn) [Example 71A, 2-Amino-N-(1-{8-chloro-5-[(2R)-2-methylpyrrolidin-1-yl]imidazo[1,5-a]pyridin-6-yl}ethyl)pyrazolo[1,5-a]pyrimidine-3-carboxamide bistrifluoroacetate], for which the results for the pIC50 in assay [1], in assay [2] and in assay [3] were above 6.00, above 7.00 and above 6.30, respectively.
The corresponding values for `CC(NC(=O)c1c(N)nn2cccnc12)c1cc(Cl)c2cncn2c1N1CCC[C@@H]1C` (stereo partly drawn) [Example 71B, 2-Amino-N-(1-{8-chloro-5-[(2S)-2-methylpyrrolidin-1-yl]imidazo[1,5-a]pyridin-6-yl}ethyl)pyrazolo[1,5-a]pyrimidine-3-carboxamide bistrifluoroacetate] are above 6.30, above 7.00 and above 7.00.
For the compound `CC(NC(=O)c1c(N)nn2cccnc12)c1cc(Cl)c2cncn2c1N1CCCC[C@H]1C` (stereo partly drawn) [Example 72A, 2-Amino-N-{1-[8-chloro-5-[(2R)-2-methylpiperidin-1-yl)imidazo[1,5-a]pyridin-6-yl]ethyl}pyrazolo[1,5-a]pyrimidine-3-carboxamide bistrifluoroacetate], the pIC50 is above 6.30 in assay [1], above 7.00 in assay [2] and above 7.00 in assay [3].
As for `CC(NC(=O)c1c(N)nn2cccnc12)c1cc(Cl)c2cncn2c1N1CCCC[C@@H]1C` (stereo partly drawn) [Example 72B, 2-Amino-N-{1-[8-chloro-5-[(2S)-2-methylpiperidin-1-yl)imidazo[1,5-a]pyridin-6-yl]ethyl}pyrazolo[1,5-a]pyrimidine-3-carboxamide bistrifluoroacetate], the pIC50 in assay [1] is above 6.30; in assay [2], above 7.00; in assay [3], above 7.00.
As to `CC(NC(=O)c1c(N)nn2cccnc12)c1cc(Cl)c2cncn2c1N1CCC(C)(C)C1` (stereo not drawn) [Example 74, 2-Amino-N-{1-[8-chloro-5-(3,3-dimethylpyrrolidin-1-yl)imidazo[1,5-a]pyridin-6-yl]ethyl}pyrazolo[1,5-a]pyrimidine-3-carboxamide bistrifluoroacetate], the pIC50 in assay [1] was above 6.30; in assay [2], above 7.00; in assay [3] it was above 7.00.
Take `CC(NC(=O)c1c(N)nn2cccnc12)c1cc(Cl)c2cncn2c1N1CC[C@@H](F)C1` (stereo partly drawn) [Example 75A, 2-Amino-N-(1-{8-chloro-5-[(3R)-3-fluoropyrrolidin-1-yl]imidazo[1,5-a]pyridin-6-yl}ethyl)pyrazolo[1,5-a]pyrimidine-3-carboxamide bistrifluoroacetate]: the pIC50 was above 6.30 in assay [1], above 7.00 in assay [2] and above 6.30 in assay [3].
Take `CC(NC(=O)c1c(N)nn2cccnc12)c1cc(Cl)c2cncn2c1N1CC[C@H](F)C1` (stereo partly drawn) [Example 75B, 2-Amino-N-(1-{8-chloro-5-[(3S)-3-fluoropyrrolidin-1-yl]imidazo[1,5-a]pyridin-6-yl}ethyl)pyrazolo[1,5-a]pyrimidine-3-carboxamide bistrifluoroacetate]: the pIC50 in assay [1] was above 6.30; in assay [2] it was above 7.00; in assay [3], above 7.00.
As to `CC(NC(=O)c1c(N)nn2cccnc12)c1cc(Cl)c2cncn2c1N1CCC2(CC1)COC(=O)N2` (stereo not drawn) [Example 79, 2-Amino-N-{1-[8-chloro-5-(2-oxo-3-oxa-1,8-diazaspiro[4.5]dec-8-yl)imidazo[1,5-a]pyridin-6-yl]ethyl}pyrazolo[1,5-a]pyrimidine-3-carboxamide trifluoroacetate], the pIC50 was below 6.00 in assay [1], above 7.00 in assay [2] and above 6.30 in assay [3].
As to `CC(NC(=O)c1c(N)nn2cccnc12)c1cc(Cl)c2cncn2c1N1CCC2(CC1)CNC(=O)O2` (stereo not drawn) [Example 80, 2-Amino-N-{1-[8-chloro-5-(2-oxo-1-oxa-3,8-diazaspiro[4.5]dec-8-yl)imidazo[1,5-a]pyridin-6-yl]ethyl}pyrazolo[1,5-a]pyrimidine-3-carboxamide trifluoroacetate], the negative logarithm of the IC50 (pIC50) was above 6.30 in assay [1], above 7.00 in assay [2] and above 6.30 in assay [3].
Take `COCCOc1c(C(C)NC(=O)c2c(N)nn3cccnc23)cc(Cl)c2cn[nH]c12` (stereo not drawn) [Example 81, 2-Amino-N-(1-(4-chloro-7-(2-methoxyethoxy)-1H-indazol-6-yl)ethyl)pyrazolo[1,5-a]pyrimidine-3-carboxamide trifluoroacetate]: the pIC50 in assay [1] was above 6.30; in assay [2] it was above 7.00; in assay [3] it was above 7.00.
For `COc1c(C(C)NC(=O)c2c(N)nn3cccnc23)cc(Cl)c2cn[nH]c12` (stereo not drawn) [Example 82, 2-Amino-N-(1-(4-chloro-7-methoxy-1H-indazol-6-yl)ethyl)pyrazolo[1,5-a]pyrimidine-3-carboxamide trifluoroacetate], the pIC50 in assay [1] was above 6.30; in assay [2], above 7.00; in assay [3] it was above 7.00.
